Reference: ChEMBL document CHEMBL1134935, “Novel lopinavir analogues incorporating non-Aromatic P-1 side chains--synthesis and structure--activity relationships” (Bioorg Med Chem Lett, 2002)

How the values were obtained:
MT4 [1] = assay: Antiviral activity against the cytopathic effects of HIV IIIB in MT-4 cells was assayed in the presence of 50% human serum; format: functional, cell-based
MT4 [2] = assay: Cytotoxicity against MT-4 cells; format: functional, cell-based; conditions: Homo sapiens
[3] = target: Human immunodeficiency virus type 1 protease (Human immunodeficiency virus 1) (UniProt Q72874); assay: Compound was tested for its inhibitory potency against HIV protease at 0.5 nM

SMILES | EC50 (MT4 [1]) | IC50 (MT4 [2]) | inhibition [3]
Cc1cccc(C)c1OCC(=O)N[C@@H](Cc1ccccc1)[C@@H](O)C[C@@H](NC(=O)[C@H](C(C)C)N1CCCNC1=O)C(C)C | 0.26 µM | 56.2 µM | 93%
Cc1cccc(C)c1OCC(=O)N[C@@H](Cc1ccccc1)[C@@H](O)C[C@H](Cc1ccccc1)NC(=O)[C@H](C(C)C)N1CCCNC1=O [LOPINAVIR] | 0.1 µM | 17.8 µM | 93%
CCCC[C@@H](C[C@H](O)[C@H](Cc1ccccc1)NC(=O)COc1c(C)cccc1C)NC(=O)[C@H](C(C)C)N1CCCNC1=O | 0.92 µM | 32.9 µM | 87%
Cc1cccc(C)c1OCC(=O)N[C@@H](Cc1ccccc1)[C@@H](O)C[C@H](CC(C)C)NC(=O)[C@H](C(C)C)N1CCCNC1=O | 0.32 µM | 34.4 µM | 64%
Cc1cccc(C)c1OCC(=O)N[C@@H](Cc1ccccc1)[C@@H](O)C[C@H](CCC(C)C)NC(=O)[C@H](C(C)C)N1CCCNC1=O | 0.34 µM | 18.7 µM | 97%
CCC(CC)C[C@@H](C[C@H](O)[C@H](Cc1ccccc1)NC(=O)COc1c(C)cccc1C)NC(=O)[C@H](C(C)C)N1CCCNC1=O | 2.8 µM | 17.8 µM | 87%
